Reference: ChEMBL document CHEMBL3120061, “Novel spiroketal pyrrolidine GSK2336805 potently inhibits key hepatitis C virus genotype 1b mutants: from lead to clinical compound” (J Med Chem, 2014)

Legend:
[1] = In vivo clearance in CD rat relative to hepatic blood flow; type: ADME, organism-based, Liver; details: read-out: CLH
Hepatitis C virus [2] = test: Ratio of EC50 for Hepatitis C virus genotype 1b harboring NS5A L31V mutant gene to EC50 for Hepatitis C virus genotype 1b harboring wild type NS5A in Huh-luc/neo-ET replicon cells by replicon-based luciferase assay; type: functional, Hepacivirus hominis
Hepatitis C virus [3] = test: Antiviral activity against Hepatitis C virus genotype 1b harboring NS5A Y93H mutant gene in Huh-luc/neo-ET replicon cells after 48 hrs by transient replicon mutant-based luciferase assay; type: functional, organism-based, Hepacivirus hominis
Hepatitis C virus [4] = test: Antiviral activity against Hepatitis C virus genotype 1b harboring NS5A L31V mutant gene in Huh-luc/neo-ET replicon cells after 48 hrs by transient replicon mutant-based luciferase assay; type: functional, organism-based, Hepacivirus hominis
Hepatitis C virus [5] = test: Antiviral activity against Hepatitis C virus genotype 1b harboring NS5A L28V mutant gene in Huh-luc/neo-ET replicon cells after 48 hrs by transient replicon mutant-based luciferase assay; type: functional, organism-based, Hepacivirus hominis
[6] = Oral bioavailability in CD rat; type: ADME, organism-based; details: in vivo
Hepatitis C virus [7] = test: Antiviral activity against Hepatitis C virus genotype 1a in Huh-luc/neo-ET replicon cells after 48 hrs by replicon-based luciferase assay; type: functional, organism-based, Hepacivirus hominis; details: subtype 1a
Hepatitis C virus [8] = test: Antiviral activity against Hepatitis C virus genotype 1b in Huh-luc/neo-ET replicon cells after 48 hrs by replicon-based luciferase assay; type: functional, organism-based, Hepacivirus hominis
Hepatitis C virus [9] = test: Antiviral activity against Hepatitis C virus genotype 1b in Huh-luc/neo-ET replicon cells assessed as log10 reduction of HCV RNA at 3 to 10 times EC90 after 5 days by RNA reduction assay; type: functional, Hepacivirus hominis
Hepatitis C virus [10] = test: Antiviral activity against Hepatitis C virus genotype 1b in Huh-luc/neo-ET replicon cells assessed as log10 reduction of HCV RNA at 3 times EC90 after 20 days by RNA reduction assay; type: functional, Hepacivirus hominis
Hepatitis C virus [11] = test: Ratio of EC50 for Hepatitis C virus genotype 1b harboring NS5A Y93H mutant gene to EC50 for Hepatitis C virus genotype 1b harboring wild type NS5A in Huh-luc/neo-ET replicon cells by replicon-based luciferase assay; type: functional, Hepacivirus hominis
Hepatitis C virus [12] = test: Antiviral activity against Hepatitis C virus genotype 1b in Huh-luc/neo-ET replicon cells assessed as log10 reduction of HCV RNA at 10 times EC90 after 20 days by RNA reduction assay; type: functional, Hepacivirus hominis
[13] = Oral bioavailability in beagle dog; type: ADME, organism-based, Canis lupus familiaris; details: in vivo
[14] = Binding affinity to human alpha1 AGP; type: ADME; details: isolated protein
[15] = Half life in human hepatocytes; type: ADME, cell-based, Hepatocyte
[16] = Half life in dog hepatocytes; type: ADME, cell-based, Canis lupus familiaris, Hepatocyte
[17] = Oral bioavailability in cynomolgus monkey; type: ADME, organism-based, Macaca fascicularis; details: in vivo
[18] = Half life in rat hepatocytes; type: ADME, cell-based, Hepatocyte
Cytochrome P450 2C19 = Cytochrome P450 2C19 (Homo sapiens, UniProt P33261); test: Inhibition of CYP2C19 (unknown origin); type: ADME
Cytochrome P450 2C19, sequence (P33261 whole entry): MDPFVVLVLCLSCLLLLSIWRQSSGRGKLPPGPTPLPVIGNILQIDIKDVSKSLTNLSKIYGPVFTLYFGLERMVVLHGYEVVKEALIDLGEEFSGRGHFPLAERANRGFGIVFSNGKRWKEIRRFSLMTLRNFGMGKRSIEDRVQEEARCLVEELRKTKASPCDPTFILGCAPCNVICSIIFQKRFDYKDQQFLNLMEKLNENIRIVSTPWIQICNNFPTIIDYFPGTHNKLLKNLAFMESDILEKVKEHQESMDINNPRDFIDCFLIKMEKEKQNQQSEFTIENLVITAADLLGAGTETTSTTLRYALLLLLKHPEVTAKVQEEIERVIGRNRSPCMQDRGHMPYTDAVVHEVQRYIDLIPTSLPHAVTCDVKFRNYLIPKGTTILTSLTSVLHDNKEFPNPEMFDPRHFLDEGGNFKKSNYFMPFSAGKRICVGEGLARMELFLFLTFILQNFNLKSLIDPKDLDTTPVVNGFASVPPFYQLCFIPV

Albumin = Albumin (Homo sapiens, UniProt P02768); test: Binding affinity to human serum albumin; type: ADME; details: isolated protein
Albumin, sequence (P02768 whole entry): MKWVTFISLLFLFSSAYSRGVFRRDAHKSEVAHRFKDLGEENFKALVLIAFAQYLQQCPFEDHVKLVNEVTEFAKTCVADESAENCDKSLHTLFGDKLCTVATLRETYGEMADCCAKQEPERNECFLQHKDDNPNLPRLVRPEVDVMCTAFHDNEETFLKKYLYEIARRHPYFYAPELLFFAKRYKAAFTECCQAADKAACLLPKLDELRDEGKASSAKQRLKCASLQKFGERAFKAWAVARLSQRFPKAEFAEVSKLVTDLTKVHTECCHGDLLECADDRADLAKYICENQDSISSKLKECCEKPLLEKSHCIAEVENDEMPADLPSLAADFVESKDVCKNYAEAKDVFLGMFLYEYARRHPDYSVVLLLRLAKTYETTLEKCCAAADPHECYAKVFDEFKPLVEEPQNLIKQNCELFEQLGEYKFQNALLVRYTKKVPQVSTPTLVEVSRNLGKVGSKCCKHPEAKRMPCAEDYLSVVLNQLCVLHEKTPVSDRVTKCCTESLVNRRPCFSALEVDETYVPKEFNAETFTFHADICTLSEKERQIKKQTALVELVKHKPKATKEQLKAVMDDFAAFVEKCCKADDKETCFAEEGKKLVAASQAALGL

[19] = In vivo clearance in beagle dog relative to hepatic blood flow; type: ADME, organism-based, Canis lupus familiaris, Liver; details: read-out: CLH
Hepatitis C virus [20] = test: Antiviral activity against Hepatitis C virus genotype 1 infected in patient assessed as decrease in log10 HCV RNA copies/ml at 120 mg administered as single dose; type: functional, Hepacivirus hominis
Cytochrome P450 3A4 = Cytochrome P450 3A4 (Homo sapiens, UniProt P08684); test: Inhibition of CYP3A4 (unknown origin); type: ADME
Cytochrome P450 3A4, sequence (P08684 whole entry): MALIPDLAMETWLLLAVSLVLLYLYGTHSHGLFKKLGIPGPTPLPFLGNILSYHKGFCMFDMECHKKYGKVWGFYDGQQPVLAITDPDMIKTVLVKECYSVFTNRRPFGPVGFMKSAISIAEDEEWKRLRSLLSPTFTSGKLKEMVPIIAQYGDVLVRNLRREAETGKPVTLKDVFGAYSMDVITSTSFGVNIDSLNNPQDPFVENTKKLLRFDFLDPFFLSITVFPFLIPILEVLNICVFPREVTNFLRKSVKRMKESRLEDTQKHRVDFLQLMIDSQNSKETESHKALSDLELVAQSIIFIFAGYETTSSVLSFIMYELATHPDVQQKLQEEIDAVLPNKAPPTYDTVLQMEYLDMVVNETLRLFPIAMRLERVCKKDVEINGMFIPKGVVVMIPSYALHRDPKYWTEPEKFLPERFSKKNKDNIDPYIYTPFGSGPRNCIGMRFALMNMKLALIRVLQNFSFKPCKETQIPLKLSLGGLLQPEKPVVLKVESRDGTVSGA

Cytochrome P450 2D6 = Cytochrome P450 2D6 (Homo sapiens, UniProt P10635); test: Inhibition of CYP2D6 (unknown origin); type: ADME
Cytochrome P450 2D6, sequence (P10635 whole entry): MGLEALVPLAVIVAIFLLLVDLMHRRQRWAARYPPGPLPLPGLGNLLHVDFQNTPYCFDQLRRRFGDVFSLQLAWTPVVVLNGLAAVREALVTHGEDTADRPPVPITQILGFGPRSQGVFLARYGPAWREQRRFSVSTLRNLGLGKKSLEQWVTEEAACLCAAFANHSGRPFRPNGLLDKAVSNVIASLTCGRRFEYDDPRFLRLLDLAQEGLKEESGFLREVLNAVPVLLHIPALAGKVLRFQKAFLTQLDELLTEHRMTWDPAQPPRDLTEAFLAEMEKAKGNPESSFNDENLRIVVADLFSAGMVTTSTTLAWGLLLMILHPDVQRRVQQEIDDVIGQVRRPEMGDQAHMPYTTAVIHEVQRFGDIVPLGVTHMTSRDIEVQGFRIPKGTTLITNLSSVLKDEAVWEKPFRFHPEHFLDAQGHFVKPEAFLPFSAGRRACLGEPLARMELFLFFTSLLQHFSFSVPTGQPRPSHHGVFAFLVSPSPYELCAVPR

[21] = Cytotoxicity against human HuhET cells infected with Hepatitis C virus up to 40 uM after 48 hrs by WST assay; type: cell-based
[22] = In vivo clearance in cynomolgus monkey relative to hepatic blood flow; type: ADME, organism-based, Macaca fascicularis, Liver; details: read-out: CLH
[23] = Half life in cynomolgus monkey hepatocytes; type: ADME, cell-based, Macaca fascicularis, Hepatocyte
Cytochrome P450 1A2 = biological target: T1, Cytochrome P450 1A2 (Homo sapiens, UniProt P05177); test: Inhibition of CYP1A2 (unknown origin); type: ADME
T1 sequence (P05177 whole entry): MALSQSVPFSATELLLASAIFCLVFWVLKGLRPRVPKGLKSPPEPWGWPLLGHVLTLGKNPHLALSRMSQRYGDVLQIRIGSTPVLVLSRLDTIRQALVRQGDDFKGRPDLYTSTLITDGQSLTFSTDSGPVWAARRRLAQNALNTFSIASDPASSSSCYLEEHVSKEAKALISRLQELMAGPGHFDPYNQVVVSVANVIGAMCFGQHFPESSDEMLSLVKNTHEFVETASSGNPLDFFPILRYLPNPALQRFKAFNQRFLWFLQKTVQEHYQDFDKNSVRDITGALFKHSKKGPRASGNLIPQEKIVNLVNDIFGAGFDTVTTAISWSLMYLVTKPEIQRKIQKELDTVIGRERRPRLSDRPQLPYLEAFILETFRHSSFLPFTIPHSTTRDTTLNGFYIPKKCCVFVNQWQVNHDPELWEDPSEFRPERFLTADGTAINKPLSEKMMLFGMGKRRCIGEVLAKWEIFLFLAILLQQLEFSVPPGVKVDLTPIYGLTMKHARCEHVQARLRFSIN

Hepatitis C virus [24] = test: Antiviral activity against Hepatitis C virus genotype 1 infected in patient assessed as decrease in log10 HCV RNA copies/ml at 1 mg administered as single dose; type: functional, Hepacivirus hominis
Cytochrome P450 2C9 = Cytochrome P450 2C9 (Homo sapiens, UniProt P11712); test: Inhibition of CYP2C9 (unknown origin); type: ADME
Cytochrome P450 2C9, sequence (P11712 whole entry): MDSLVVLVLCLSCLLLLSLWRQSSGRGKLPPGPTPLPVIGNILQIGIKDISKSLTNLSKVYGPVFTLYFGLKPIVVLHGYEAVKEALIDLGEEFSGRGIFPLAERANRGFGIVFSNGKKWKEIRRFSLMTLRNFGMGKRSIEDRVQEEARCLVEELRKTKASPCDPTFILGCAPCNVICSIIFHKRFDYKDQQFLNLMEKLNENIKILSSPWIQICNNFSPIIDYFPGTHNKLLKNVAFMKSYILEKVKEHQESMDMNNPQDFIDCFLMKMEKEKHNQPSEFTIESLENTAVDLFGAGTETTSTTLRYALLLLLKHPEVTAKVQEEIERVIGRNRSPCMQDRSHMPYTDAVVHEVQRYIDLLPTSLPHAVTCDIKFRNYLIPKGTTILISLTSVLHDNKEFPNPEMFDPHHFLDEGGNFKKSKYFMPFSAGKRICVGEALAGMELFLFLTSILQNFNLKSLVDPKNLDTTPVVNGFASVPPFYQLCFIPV

SMILES	clearance [1] [mL/min/kg]	Ratio EC50 (Hepatitis C virus [2])	EC50 (Hepatitis C virus [3]) [nM]	EC50 (Hepatitis C virus [4]) [nM]	EC50 (Hepatitis C virus [5]) [nM]	bioavailability [6] [%]	EC50 (Hepatitis C virus [7]) [nM]	EC50 (Hepatitis C virus [8]) [nM]	FC (Hepatitis C virus [9])	FC (Hepatitis C virus [10])	Ratio EC50 (Hepatitis C virus [11])	FC (Hepatitis C virus [12])	other results
COC(=O)N[C@H](C(=O)N1CC2(C[C@H]1c1ncc(-c3ccc(-c4ccc(-c5cnc([C@@H]6CC7(CN6C(=O)[C@@H](NC(=O)OC)C(C)C)OCCO7)[nH]5)cc4)cc3)[nH]1)OCCO2)C(C)C	58	<=5	0.0126	0.0251	0.0126	9	0.0501	0.01	–	–	–	–	–
COC(=O)N[C@H](C(=O)N1CCC[C@H]1c1ncc(-c2ccc(-c3ccc(-c4cnc([C@@H]5CCCN5C(=O)[C@@H](NC(=O)OC)C(C)C)[nH]4)cc3)cc2)[nH]1)C(C)C [DACLATASVIR]	–	>=25	0.316	0.126	0.00398	–	0.0398	0.01	2	2	>=30	3	–
COC(=O)N[C@H](C(=O)N1CCC[C@H]1c1ncc(-c2ccc(-c3ccc(-c4cnc([C@@H]5CC6(CN5C(=O)[C@@H](NC(=O)OC)C(C)C)OCCO6)[nH]4)cc3)cc2)[nH]1)C(C)C	60	<=5	0.0251	0.0251	0.00316	13	0.0398	0.00794	2	3	3.2	4	bioavailability [13]: 51%; Activity [14]: 86%; half-life [15]: ≥ 6 h; half-life [16]: ≥ 6 h; bioavailability [17]: 13%; half-life [18]: 2.67 h; IC50 (Cytochrome P450 2C19): > 33000 nM; Activity (Albumin): 94%; clearance [19]: 8 mL/min/kg; FC (Hepatitis C virus [20]): 2.95; IC50 (Cytochrome P450 3A4): > 33000 nM; IC50 (Cytochrome P450 2D6): > 33000 nM; Activity [21]: Non-toxic; clearance [22]: 9 mL/min/kg; half-life [23]: ≥ 6 h; IC50 (Cytochrome P450 1A2): > 33000 nM; FC (Hepatitis C virus [24]): 0.996; IC50 (Cytochrome P450 2C9): > 33000 nM
